Experimental data taken from article PMC10365998, “An ATP-sensitive phosphoketolase regulates carbon fixation in cyanobacteria” (Nature Metabolism, 2023).

Legend:
SeXPK [1] = target: T1, SeXPK (Synechococcus elongatus, UniProt Q31LF9, Y710A); assay: acetyl phosphate formation, hydroxamate colorimetric assay; format: biochemical; details: 30 mM phosphate, pH 6.4, 1 mM TPP, 1 mM MgCl2; no ATP
T1 construct: gene Synpcc7942_2080; N-terminal 6His tag, pDC vector, E. coli; dodecamer of six dimers; purified with TPP/Mg2+

[2] = target: T2, Methylomonas sp. XPK (MeXPK) (Methylomonas sp. DH-1, UniProt A0A172UD65); assay: as above; format: biochemical; details: 30 mM phosphate, pH 6.4, 1 mM TPP, 1 mM MgCl2; no ATP
T2 construct: same plasmid as SeXPK (N-terminal 6His tag), expressed in E. coli and purified
T2 sequence (A0A172UD65 1-788): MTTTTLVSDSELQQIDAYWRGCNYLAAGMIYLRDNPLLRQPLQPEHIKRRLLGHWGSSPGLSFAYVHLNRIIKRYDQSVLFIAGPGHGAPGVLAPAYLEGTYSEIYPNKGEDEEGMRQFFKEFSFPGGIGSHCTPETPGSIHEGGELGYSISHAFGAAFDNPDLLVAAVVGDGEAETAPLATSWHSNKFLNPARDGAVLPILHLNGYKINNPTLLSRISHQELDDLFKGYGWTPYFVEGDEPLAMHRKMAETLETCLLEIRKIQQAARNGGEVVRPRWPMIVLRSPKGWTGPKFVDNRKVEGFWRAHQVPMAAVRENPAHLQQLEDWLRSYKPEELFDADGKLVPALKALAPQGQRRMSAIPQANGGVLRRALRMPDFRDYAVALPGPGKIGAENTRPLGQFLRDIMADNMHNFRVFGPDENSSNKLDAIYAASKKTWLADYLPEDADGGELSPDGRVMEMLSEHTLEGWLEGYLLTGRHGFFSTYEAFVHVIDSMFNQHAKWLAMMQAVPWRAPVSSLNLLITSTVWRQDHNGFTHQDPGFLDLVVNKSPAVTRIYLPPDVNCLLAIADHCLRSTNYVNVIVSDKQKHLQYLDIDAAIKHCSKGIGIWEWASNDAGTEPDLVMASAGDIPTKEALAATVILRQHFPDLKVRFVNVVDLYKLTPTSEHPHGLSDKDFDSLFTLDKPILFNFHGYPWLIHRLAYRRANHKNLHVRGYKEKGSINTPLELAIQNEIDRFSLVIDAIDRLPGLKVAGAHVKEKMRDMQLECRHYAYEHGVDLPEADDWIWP
Source text: acetyl phosphate formation, hydroxamate colorimetric assay on Methylomonas sp. XPK (MeXPK) | Methylomonas sp.

SeXPK [3] = target: T3, SeXPK (Synechococcus elongatus, UniProt Q31LF9, H706A); assay: as above; format: biochemical; details: 30 mM phosphate, pH 6.4, 1 mM TPP, 1 mM MgCl2; no ATP; most activity lost
T3 construct: gene Synpcc7942_2080; N-terminal 6His tag, pDC vector, E. coli; dodecamer of six dimers; purified with TPP/Mg2+

SeXPK [4] = target: T4, SeXPK (Synechococcus elongatus, UniProt Q31LF9, H706R); assay: as above; format: biochemical; details: 30 mM phosphate, pH 6.4, 1 mM TPP, 1 mM MgCl2; no ATP
T4 construct: gene Synpcc7942_2080; N-terminal 6His tag, pDC vector, E. coli; dodecamer of six dimers; purified with TPP/Mg2+

SeXPK [5] = target: T5, SeXPK (Synechococcus elongatus, UniProt Q31LF9); assay: cryo-EM structure; format: binding; details: 2 mM AMPPNP; allosteric site at dimer interface, two per dimer, no Mg2+ bound; TPP/Mg2+ present
T5 construct: gene Synpcc7942_2080; N-terminal 6His tag, pDC vector, E. coli; dodecamer of six dimers; purified with TPP/Mg2+
T5 sequence (Q31LF9 1-796): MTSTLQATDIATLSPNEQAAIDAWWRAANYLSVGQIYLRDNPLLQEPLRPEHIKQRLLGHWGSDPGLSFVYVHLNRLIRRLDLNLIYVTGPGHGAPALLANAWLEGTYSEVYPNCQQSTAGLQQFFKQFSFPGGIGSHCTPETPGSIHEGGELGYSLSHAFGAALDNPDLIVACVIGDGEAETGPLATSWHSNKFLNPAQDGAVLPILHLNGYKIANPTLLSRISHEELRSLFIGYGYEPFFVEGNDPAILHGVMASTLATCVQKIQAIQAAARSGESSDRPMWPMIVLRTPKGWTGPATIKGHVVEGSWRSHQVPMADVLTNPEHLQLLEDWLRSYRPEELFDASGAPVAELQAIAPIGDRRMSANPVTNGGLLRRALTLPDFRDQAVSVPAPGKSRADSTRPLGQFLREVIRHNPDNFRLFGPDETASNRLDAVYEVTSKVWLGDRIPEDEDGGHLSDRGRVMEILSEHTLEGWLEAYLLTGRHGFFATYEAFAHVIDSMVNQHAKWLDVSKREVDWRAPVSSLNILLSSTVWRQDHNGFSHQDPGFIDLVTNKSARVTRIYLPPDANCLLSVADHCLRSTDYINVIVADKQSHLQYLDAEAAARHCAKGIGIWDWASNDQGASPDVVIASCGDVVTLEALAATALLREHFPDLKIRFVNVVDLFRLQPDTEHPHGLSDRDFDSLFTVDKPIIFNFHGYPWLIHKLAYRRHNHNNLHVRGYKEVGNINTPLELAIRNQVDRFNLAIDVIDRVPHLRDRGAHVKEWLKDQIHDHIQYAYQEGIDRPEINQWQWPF

[6] = target: Bifidobacterium longum phosphoketolase (B. longum XPK) (B. longum); assay: cryo-EM structure; purified B. longum XPK with TPP/Mg2+, free form; D4 symmetry, focused refinement of one dimer
[7] = target: T2, Methylomonas sp. XPK (MeXPK); assay: acetyl phosphate formation, hydroxamate colorimetric assay; format: biochemical; details: F6P varied, 30 mM phosphate, pH 6.4, 1 mM TPP, 1 mM MgCl2; allosteric
Source text: acetyl phosphate formation, hydroxamate colorimetric assay on Methylomonas sp.

SeXPK [8] = target: T5, SeXPK; assay: as above; format: biochemical; details: F6P varied, 30 mM phosphate, pH 6.4, 1 mM TPP, 1 mM MgCl2; allosteric
[9] = target: the molecule itself; assay: cryo-EM structure; purified SeXPK ~0.4 mg/ml (2.2 µM of dimer) in 20 mM HEPES-NaOH pH 7.2, 0.1 M NaCl, 0.2 mM TPP, 1 mM MgCl2; free and with 2 mM AMPPNP; D6 symmetry, focused refinement of one dimer

T3 sequence (Q31LF9 whole entry H706A): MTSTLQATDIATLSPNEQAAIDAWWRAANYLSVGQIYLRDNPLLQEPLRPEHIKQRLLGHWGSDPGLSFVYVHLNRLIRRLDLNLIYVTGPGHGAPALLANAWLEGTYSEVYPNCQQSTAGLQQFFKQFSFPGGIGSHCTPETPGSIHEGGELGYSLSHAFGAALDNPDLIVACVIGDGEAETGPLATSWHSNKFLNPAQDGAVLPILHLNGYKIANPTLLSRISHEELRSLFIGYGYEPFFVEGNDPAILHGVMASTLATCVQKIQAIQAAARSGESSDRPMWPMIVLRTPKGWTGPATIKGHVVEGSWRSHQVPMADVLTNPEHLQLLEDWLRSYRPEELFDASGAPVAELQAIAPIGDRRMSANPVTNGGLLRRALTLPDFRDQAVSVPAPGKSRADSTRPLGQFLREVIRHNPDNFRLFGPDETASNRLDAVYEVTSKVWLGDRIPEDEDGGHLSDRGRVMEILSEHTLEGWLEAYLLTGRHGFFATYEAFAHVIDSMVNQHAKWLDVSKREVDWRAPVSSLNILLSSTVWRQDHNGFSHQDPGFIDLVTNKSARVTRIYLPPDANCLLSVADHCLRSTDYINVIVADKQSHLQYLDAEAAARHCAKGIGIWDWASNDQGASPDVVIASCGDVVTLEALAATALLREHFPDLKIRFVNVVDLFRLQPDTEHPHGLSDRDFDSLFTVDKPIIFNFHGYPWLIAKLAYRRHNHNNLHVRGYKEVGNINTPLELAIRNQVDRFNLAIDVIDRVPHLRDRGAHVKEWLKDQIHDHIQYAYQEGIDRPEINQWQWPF
T1 sequence (Q31LF9 whole entry Y710A): as the sequence (Q31LF9 whole entry H706A) above, with A706H, Y710A counted along it
T4 sequence (Q31LF9 whole entry H706R): as the sequence (Q31LF9 whole entry H706A) above, with A706R counted along it

O=P(O)(O)OC[C@H]1OC(O)(CO)[C@@H](O)[C@@H]1O (stereo partly drawn) [F6P]
acetyl phosphate formation, hydroxamate colorimetric assay (SeXPK [1]): Y710A mutant of SeXPK lost most activity | Km [2]: Methylomonas sp. XPK (MeXPK) is also inhibited by ATP | acetyl phosphate formation, hydroxamate colorimetric assay (SeXPK [3]): H706A mutant of SeXPK lost most activity | ATP sensitivity of activity (SeXPK [4]): H706R mutant of SeXPK shows only minor effect by ATP

Nc1ncnc2c1ncn2[C@@H]1O[C@H](COP(=O)(O)OP(=O)(O)NP(=O)(O)O)[C@@H](O)[C@H]1O [AMPPNP, phosphoaminophosphonic acid adenylate ester]
cryo-EM structure (SeXPK [5]): the two subunits jointly bind two AMPPNP

Bifidobacterium longum phosphoketolase (B. longum XPK) (enzyme)
stoichiometry N [6]: 8

Nc1ncnc2c1ncn2[C@@H]1O[C@H](COP(=O)(O)OP(=O)(O)OP(=O)(O)O)[C@@H](O)[C@H]1O [ATP, adenosine-5′-triphosphate]
inhibition [7]: its allosteric inhibition by ATP was validated based on steady-state kinetics | inhibition at 0.5, 1 or 2 mM (SeXPK [8]): SeXPK is inhibited in vitro by ATP through an allosteric mode

B1: Synechococcus elongatus PCC7942 phosphoketolase (SeXPK) (enzyme)
chain: MTSTLQATDIATLSPNEQAAIDAWWRAANYLSVGQIYLRDNPLLQEPLRPEHIKQRLLGHWGSDPGLSFVYVHLNRLIRRLDLNLIYVTGPGHGAPALLANAWLEGTYSEVYPNCQQSTAGLQQFFKQFSFPGGIGSHCTPETPGSIHEGGELGYSLSHAFGAALDNPDLIVACVIGDGEAETGPLATSWHSNKFLNPAQDGAVLPILHLNGYKIANPTLLSRISHEELRSLFIGYGYEPFFVEGNDPAILHGVMASTLATCVQKIQAIQAAARSGESSDRPMWPMIVLRTPKGWTGPATIKGHVVEGSWRSHQVPMADVLTNPEHLQLLEDWLRSYRPEELFDASGAPVAELQAIAPIGDRRMSANPVTNGGLLRRALTLPDFRDQAVSVPAPGKSRADSTRPLGQFLREVIRHNPDNFRLFGPDETASNRLDAVYEVTSKVWLGDRIPEDEDGGHLSDRGRVMEILSEHTLEGWLEAYLLTGRHGFFATYEAFAHVIDSMVNQHAKWLDVSKREVDWRAPVSSLNILLSSTVWRQDHNGFSHQDPGFIDLVTNKSARVTRIYLPPDANCLLSVADHCLRSTDYINVIVADKQSHLQYLDAEAAARHCAKGIGIWDWASNDQGASPDVVIASCGDVVTLEALAATALLREHFPDLKIRFVNVVDLFRLQPDTEHPHGLSDRDFDSLFTVDKPIIFNFHGYPWLIHKLAYRRHNHNNLHVRGYKEVGNINTPLELAIRNQVDRFNLAIDVIDRVPHLRDRGAHVKEWLKDQIHDHIQYAYQEGIDRPEINQWQWPF
notes: phosphoketolase (XPK) of Synechococcus elongatus PCC7942, locus Synpcc7942_2080; Carries the coenzyme TPP/Mg2+; studied free and with 2 mM AMPPNP; Dodecamer of six dimers by cryo-EM; also called S. elongatus PCC7942 XPK; Synpcc7942_2080; source: E. coli DH5αDE3.1, purified (His-Tag resin, Q Sepharose, Superdex 200); copies: 12
stoichiometry N [9]: 12
